According to patent US10822337B2, “TGF-β inhibitorC” (Rigel Pharmaceuticals, Inc., priority 2015, dated 2020):

Legend:
[1] = tested on: GDF8 signaling (GDF pSMAD, MPC11); experiment: AlphaScreen SureFire SMAD3 (p-Ser423/425) assay, inhibition of GDF8 signaling; type: cell-based; conditions: Mus musculus, MPC-11, p-SMAD-3 (Ser423/425) in cell lysate after GDF8 stimulation
Text: (§1) Example 2: AlphaScreen® SureFire® SMAD3 (p-Ser423/425) Assay
(§2) The p-SMAD-3 (Ser423/425) SureFire® assay has been designed to measure the phosphorylation of endogenous cellular p-SMAD-3 (Ser423/425) in cell lysates and is a system for the screening of both modulators of receptor activation (e.g. agonists and antagonists) as well as agents acting intracellularly, such as small molecule inhibitors of upstream events. The assay will measure p-SMAD-3 (Ser423/425) activation by either cloned or endogenous receptors, and can be applied to primary cells.
(§3) 1× Lysis buffer: 1 ml of 5× Lysis buffer was diluted with 4 ml of sterile water. After dilution, excess 1× Lysis buffer can be frozen and thawed up to 5 times without loss in activity.
(§4) P-SMAD-3 (Ser423/425) SureFire® Assay Protocols
(§5) Step A: Preparation of Buffers
(§6) Activation buffer: The buffer was warmed slowly to 37° C. and gently mixed to re-suspend. Activation buffer can be stored at room temperature with no loss in activity.
(§7) Reaction buffer: The buffer was kept at 4° C. while in use.
(§8) AlphaScreen® Protein A IgG Kit: The kit was stored at 4° C. in the dark.
(§9) Reaction buffer+Activation buffer+AlphaScreen® Acceptor beads: Reaction buffer (40 parts), Activation Buffer (10 parts) and Acceptor beads (1 part) were mixed and the mixture was stored at room temperature and used the same day. Mixture was added to 384-well plates; excess mixturewas discarded.
(§10) Dilution buffer+AlphaScreen® Donor beads: Dilution buffer (20 parts) and Donor beads (1 part) were mixed and the mixture was stored at room temperature and used the same day. Excess mixture was discarded.
(§11) Assay control samples: After reconstitution in 250 μl of water, lysates were at −20° C. in single use aliquots.
(§12) Step B: Preparation of Samples and Cells
(§13) 96-well Assay Protocol for 293FT and RMS13 adherent cells can be carried out manually or in high throughput with liquid handling robots.
(§14) The cells (80 μL of cells for 96 well plates) were plated in collagen coated tissue culture plates in RPMI or FreeStyle medium (Invitrogen) and incubated overnight. For manual analysis, 6 plates for GDF8, 6 plates for TGFβ, and optionally 6 plates for Alk5ca(ALKS constitutively active) were used.
(§15) The compound dilution plates were prepared as follows: 12 μL of DMSO was transferred into first column of 96-well plate, and 16 μL of DMSO was transferred into columns 2-12 of the 96-well plate. 12 μL of compound solution was transferred into first column of the DMSO-containing 96-well plate. Three-fold dilution was performed up to column 10 of the DMSO-containing 96-well plate.
(§16) Step C: Treatment and Analysis
(§17) The plate containing cells were treated with compounds for about 10 minutes, and then ligand was added. GDF8 or TGFb was added to plates to stimulate. 293FL cells were stimulatedfor 90 minutes at 37° C.; and RMS13 cells were stimulated for 60 minutes at 37° C. The medium was then removed from the cells, and 1× Lysis Buffer (about 25 μL) was added and the plate was gently agitated on plate shaker for 5-10 minutes.
(§18) The lysate (5 μL) was then placed into 384-well shallow plates avoiding the generation of bubbles. To this, the Reaction Buffer+Activation Buffer+AlphaScreen® Acceptor beadsmixture (5 μL) was added. The plate was sealed with adhesive cover and shielded from light (e.g., with metal foil), and agitated gently on plate shaker for 2 hours at room temperature.
(§19) Dilution buffer+AlphaScreen® Donor beads (2 μL) was then added, and the plate was intubated on the plate shaker for an additional 1½ hours. After completion, the plate was read on Synergy-4 or Enspire plate reader, using AlphaScreen® pSMAD3® settings.
(§20) Representative results for inhibition of GDF8 (data=GDF pSMAD (MPC11) (μM)) and TGF-β (data=TGF-β pSMAD (MPC-11) (μM)) signaling are shown in Table 1: […]

[2] = tested on: TGF-β signaling (TGF-β pSMAD, MPC-11); experiment: AlphaScreen SureFire SMAD3 (p-Ser423/425) assay, inhibition of TGF-β signaling; type: cell-based; conditions: Mus musculus, p-SMAD-3 (Ser423/425) in cell lysate after TGF-β stimulation
Text: as §1, §2, §3, §4, §5, §6, §7, §8, §9, §10, §11, §12, §13, §14, §15, §16, §17, §18, §19, §20

| Compound | IC50 [1] | IC50 [2] |
| --- | --- | --- |
| FC(F)(F)c1cccc(-c2nn3c(c2-c2ccc4[nH]ncc4c2)CCC3)c1 [Compound 31, 5-(2-(3-Trifluoromethylphenyl)-5,6-dihydro-4H-pyrrolo[1,2-b]pyrazol-3-yl)-1H-indazole] | 51 nM | 171 nM |
| FC(F)(F)c1cccc(-c2nn3c(c2-c2ccc4cn[nH]c4c2)CCC3)c1 [Compound 32, 6-(2-(3-Trifluoromethylphenyl)-5,6-dihydro-4H-pyrrolo[1,2-b]pyrazol-3-yl)-1H-indazole] | 45.1 nM | 292 nM |
| Cn1cnc2ccc(-c3c(-c4cccc(C(F)(F)F)c4)nn4c3CCC4)cc21 [Compound 33, 1-Methyl-6-(2-(3-trifluoromethylphenyl)-5,6-dihydro-4H-pyrrolo[1,2-b]pyrazol-3-yl)-1H-benzo[d]imidazole] | 21.2 nM | 42.1 nM |
| FC(F)(F)c1cccc(-c2nn3c(c2-c2ccc4nccn4c2)CCC3)c1 [Compound 34, 6-(2-(3-Trifluoromethylphenyl)-5,6-dihydro-4H-pyrrolo[1,2-b]pyrazol-3-yl)imidazo[1,2-a]pyridine] | 8.3 nM | 34.8 nM |
| FC(F)(F)c1cccc(-c2nn3c(c2-c2ccc4ncsc4c2)CCC3)c1 [Compound 35, 6-(2-(3-Trifluoromethylphenyl)-5,6-dihydro-4H-pyrrolo[1,2-b]pyrazol-3-yl)benzo[d]thiazole] | 97.9 nM | 350 nM |
| Cc1cccc(-c2nn3c(c2-c2ccc4[nH]ncc4c2)OCC3)c1 [Compound 36, 7-(1H-Indazol-5-yl)-6-(m-tolyl)-2,3-dihydropyrazolo[5,1-b]oxazole] | 104 nM | 526 nM |
| Cc1cccc(-c2nn3c(c2-c2ccc4cn[nH]c4c2)OCC3)c1 [Compound 37, 7-(1H-indazol-6-yl)-6-(m-tolyl)-2,3-dihydropyrazolo[5,1-b]oxazole] | 36.5 nM | 193 nM |
| Cc1cccc(-c2nn3c(c2-c2ccc4ncn(C)c4c2)OCC3)c1 [Compound 38, 7-(1-Methyl-1H-benzo[d]imidazol-6-yl)-6-(m-tolyl)-2,3-dihydropyrazolo[5,1-b]oxazole] | 22.6 nM | 57.9 nM |
| Cc1cccc(-c2nn3c(c2-c2ccc4ncsc4c2)OCC3)c1 [Compound 39] | 59.6 nM | 175 nM |
| Cc1cccc(-c2nn3c(c2-c2ccc4[nH]ncc4c2)OCCC3)c1 [Compound 40, 3-(1H-Indazol-5-yl)-2-(m-tolyl)-6,7-dihydro-5H-pyrazolo[5,1-b][1,3]oxazine] | 657 nM | 2450 nM |
| Cc1cccc(-c2nn3c(c2-c2ccc4ncn(C)c4c2)OCCC3)c1 [Compound 41, 3-(1-Methyl-1H-benzo[d]imidazol-6-yl)-2-(m-tolyl)-6,7-dihydro-5H-pyrazolo[5,1-b][1,3]oxazine] | 80.8 nM | 188 nM |
| Cc1cccc(-c2nn3c(c2-c2ccc4nccn4c2)OCCC3)c1 [Compound 42, 3-(Imidazo[1,2-a]pyridin-6-yl)-2-(m-tolyl)-6,7-dihydro-5H-pyrazolo[5,1-b][1,3]oxazine] | 112 nM | 331 nM |
| Cc1cccc(-c2nn3c(c2-c2ccc4ncsc4c2)OCCC3)c1 [Compound 43, 3-(benzo[d]thiazol-6-yl)-2-(m-tolyl)-6,7-dihydro-5H-pyrazolo[5,1-b][1,3]oxazine] | 147 nM | 501 nM |
| Cc1cccc(-c2nn3c(c2-c2ccc4nccn4c2)OCC3)c1 [Compound 44, 7-(imidazo[1,2-a]pyridin-6-yl)-6-(m-tolyl)-2,3-dihydropyrazolo[5,1-b]oxazole] | 23.3 nM | 106 nM |
| Fc1ccc(-c2nn3c(c2-c2ccc4ncccc4c2)CCC3)cc1 [Compound 45, 6-(2-(4-Fluorophenyl)-5,6-dihydro-4H-pyrrolo[1,2-b]pyrazol-3-yl)quinoline] | 1080 nM | 12600 nM |
| Cc1cccc(-c2nn3c(c2-c2ccc4ncccc4c2)CCC3)c1 [Compound 46, 6-(2-(m-Tolyl)-5,6-dihydro-4H-pyrrolo[1,2-b]pyrazol-3-yl)quinoline] | 234 nM | 1510 nM |
| Cc1cc(-c2nn3c(c2-c2ccc4ncccc4c2)CCC3)ccc1F [Compound 47, 6-(2-(4-Fluoro-3-methylphenyl)-5,6-dihydro-4H-pyrrolo[1,2-b]pyrazol-3-yl)quinoline] | 335 nM | 2520 nM |
| COc1cccc(-c2nn3c(c2-c2ccc4ncccc4c2)CCC3)c1 [Compound 48, 6-(2-(3-Methoxyphenyl)-5,6-dihydro-4H-pyrrolo[1,2-b]pyrazol-3-yl)quinoline] | 610 nM | 4460 nM |
| Clc1cccc(-c2nn3c(c2-c2ccc4ncccc4c2)CCC3)c1 [Compound 49, 6-(2-(3-Chlorophenyl)-5,6-dihydro-4H-pyrrolo[1,2-b]pyrazol-3-yl)quinoline] | 129 nM | 926 nM |
| FC(F)(F)c1cccc(-c2nn3c(c2-c2ccc4ncccc4c2)CCC3)c1 [Compound 50, 6-(2-(3-Trifluoromethylphenyl)-5,6-dihydro-4H-pyrrolo[1,2-b]pyrazol-3-yl)quinoline] | 473 nM | 4190 nM |
| Cc1cccc(-c2nn3c(c2-c2ccc4ncccc4c2)OCC3)c1 [Compound 51, 7-(Quinolin-6-yl)-6-(m-tolyl)-2,3-dihydropyrazolo[5,1-b]oxazole] | 373 nM | 2950 nM |
| Cc1cccc(-c2nn3c(c2-c2ccc4nccnc4c2)OCC3)c1 [Compound 52, 7-(Quinoxalin-6-yl)-6-(m-tolyl)-2,3-dihydropyrazolo[5,1-b]oxazole] | 47.7 nM | 203 nM |
| Fc1ccc(-c2nn3c(c2-c2ccc4nccnc4c2)CCC3)cc1 [Compound 53, 6-(2-(4-Fluorophenyl)-5,6-dihydro-4H-pyrrolo[1,2-b]pyrazol-3-yl)quinoxaline] | 395 nM | 2340 nM |
| Cc1cccc(-c2nn3c(c2-c2ccc4nccnc4c2)CCC3)c1 [Compound 54, 6-(2-(m-Tolyl)-5,6-dihydro-4H-pyrrolo[1,2-b]pyrazol-3-yl)quinoxaline] | 60.2 nM | 204 nM |
| Cc1cc(-c2nn3c(c2-c2ccc4nccnc4c2)CCC3)ccc1F [Compound 55, 6-(2-(4-Fluoro-3-methylphenyl)-5,6-dihydro-4H-pyrrolo[1,2-b]pyrazol-3-yl)quinoxaline] | 173 nM | 525 nM |
| COc1cccc(-c2nn3c(c2-c2ccc4nccnc4c2)CCC3)c1 [Compound 56, 6-(2-(3-Methoxyphenyl)-5,6-dihydro-4H-pyrrolo[1,2-b]pyrazol-3-yl)quinoxaline] | 372 nM | 866 nM |
| Clc1cccc(-c2nn3c(c2-c2ccc4nccnc4c2)CCC3)c1 [Compound 57, 6-(2-(3-Chlorophenyl)-5,6-dihydro-4H-pyrrolo[1,2-b]pyrazol-3-yl)quinoxaline] | 72.4 nM | 398 nM |
| FC(F)(F)c1cccc(-c2nn3c(c2-c2ccc4nccnc4c2)CCC3)c1 [Compound 58, 6-(2-(3-Trifluoromethylphenyl)-5,6-dihydro-4H-pyrrolo[1,2-b]pyrazol-3-yl)quinoxaline] | 309 nM | 863 nM |
| FC(F)(F)c1cccc(-c2nn3c(c2-c2ccc4[nH]ncc4c2)OCC3)c1 [Compound 59, 7-(1H-Indazol-5-yl)-6-(3-trifluoromethylphenyl)-2,3-dihydropyrazolo[5,1-b]oxazole] | 217 nM | 701 nM |
